Assay [1] concerns Streptococcus pneumoniae. Description: Antibacterial activity against Streptococcus pneumoniae ATCC 49619 after 18 to 24 hrs by agar dilution method. It counts as functional. (In general: Agar dilution tests growth on a series of plates holding different concentrations.)
Assay [2] deals with Salmonella. Description: Antibacterial activity against Salmonella group D after 18 to 24 hrs by agar dilution method. In kind it is functional.
Assay [3] relates to Shigella sonnei. Description: Antibacterial activity against Shigella sonnei […] after 18 to 24 hrs by agar dilution method. In kind it is functional.
Assay [4] has as its system Staphylococcus aureus. Description: Antibacterial activity against Staphylococcus aureus after 18 to 24 hrs by agar dilution method. In kind it is functional.
Assay [5] concerns Haemophilus influenzae. Description: Antibacterial activity against Haemophilus influenzae […] after 18 to 24 hrs by agar dilution method. It counts as functional.
In assay [6] the test system is Escherichia coli. Description: Antibacterial activity against Escherichia coli after 18 to 24 hrs by agar dilution method. It counts as functional.
Assay [7] deals with Human immunodeficiency virus. Description: Antiviral activity against HIV infected in human PBMC assessed as decrease in viral p24 antigen production at 0.25 to 4 ug/ml after 14 days by ELISA. It counts as functional, organism-based. A general note: An ELISA detects its analyte on a solid surface through an enzyme-linked reagent.
Assay [8] concerns Shigella flexneri. Description: Antibacterial activity against Shigella flexneri group B after 18 to 24 hrs by agar dilution method. It counts as functional.
Assay [9] deals with Haemophilus influenzae. Description: Antibacterial activity against Haemophilus influenzae after 18 to 24 hrs by agar dilution method. It counts as functional.
Assay [10] concerns Streptococcus pneumoniae. Description: Antibacterial activity against Streptococcus pneumoniae after 18 to 24 hrs by agar dilution method. It counts as functional.
For assay [11], the system named is Staphylococcus aureus. Description: Antibacterial activity against Staphylococcus aureus ATCC 29213 after 18 to 24 hrs by agar dilution method. In kind it is functional.
In assay [12] the test system is Escherichia coli. Description: Antibacterial activity against Escherichia coli ATCC 25922 after 18 to 24 hrs by agar dilution method. In kind it is functional.
A short description of assay [13]: Antibacterial activity against Salmonella group B ATCC 31194 after 18 to 24 hrs by agar dilution method. It counts as functional. To be noted: Salmonella sp. 'group B'.

In brackets after ≈: the same amount, converted by molar mass. Activity calls are given as the source filed them. No cut-off for these calls is given here.

As to `Cc1ccnc2c1NC(=O)c1cccnc1N2C1CC1` [NEVIRAPINE], the MIC in assay [1], in [2], in assay [3], in assay [4], in [5] and in [6] was 4 µg/mL (≈ 15 µM) in each case. Moreover, the MIC in assay [8], in [9], in [10], in assay [11], in assay [12] and in assay [13] was 4 µg/mL (≈ 15 µM) each time. Moreover, the inhibition result in assay [7] is “Active”.

The values above are taken from ChEMBL document CHEMBL1649556, “Lack of antimicrobial activity by the antiretroviral drug nevirapine against common bacterial pathogens” (2009).
